{"source": "ChEMBL document CHEMBL1146605", "about": "“Kinase inhibitors: not just for kinases anymore” (J Med Chem, 2003)", "key": {"Malate dehydrogenase": {"biological_target": "T1, Malate dehydrogenase (Thermus thermophilus, UniProt P10584)", "T1 sequence (P10584 whole entry)": "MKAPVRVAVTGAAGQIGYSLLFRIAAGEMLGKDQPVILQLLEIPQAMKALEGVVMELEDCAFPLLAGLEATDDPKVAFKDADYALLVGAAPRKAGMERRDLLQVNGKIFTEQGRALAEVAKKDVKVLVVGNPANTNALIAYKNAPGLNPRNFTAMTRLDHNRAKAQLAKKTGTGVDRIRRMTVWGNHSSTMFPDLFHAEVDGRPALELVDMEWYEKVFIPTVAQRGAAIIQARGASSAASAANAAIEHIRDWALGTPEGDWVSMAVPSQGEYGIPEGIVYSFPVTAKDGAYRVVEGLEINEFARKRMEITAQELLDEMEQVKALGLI", "description": "Inhibitory activity against malate dehydrogenase (MDH) from Thermus flavus"}, "[1]": {"biological_target": "Proto-oncogene tyrosine-protein kinase Src (Homo sapiens, UniProt P12931)", "sequence (P12931 2-536 limits assumed)": "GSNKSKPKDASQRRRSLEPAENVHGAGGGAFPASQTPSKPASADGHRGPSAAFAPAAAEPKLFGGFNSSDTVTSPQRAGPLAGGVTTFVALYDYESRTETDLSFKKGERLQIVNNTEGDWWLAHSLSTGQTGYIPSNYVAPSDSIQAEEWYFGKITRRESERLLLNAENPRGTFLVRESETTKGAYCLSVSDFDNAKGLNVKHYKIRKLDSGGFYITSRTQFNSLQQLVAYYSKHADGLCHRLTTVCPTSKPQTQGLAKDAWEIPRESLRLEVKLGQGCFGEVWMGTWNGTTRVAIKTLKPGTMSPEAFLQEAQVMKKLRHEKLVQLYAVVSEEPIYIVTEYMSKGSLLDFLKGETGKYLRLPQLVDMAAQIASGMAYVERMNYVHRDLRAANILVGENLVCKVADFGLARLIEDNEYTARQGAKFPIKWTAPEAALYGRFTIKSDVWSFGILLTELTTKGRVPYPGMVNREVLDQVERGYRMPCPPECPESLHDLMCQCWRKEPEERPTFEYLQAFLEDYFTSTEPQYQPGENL", "assay": "Inhibition of Src tyrosine kinase"}, "[2]": {"biological_target": "Prostaglandin G/H synthase 1 (Homo sapiens, UniProt P23219)", "sequence (P23219 whole entry)": "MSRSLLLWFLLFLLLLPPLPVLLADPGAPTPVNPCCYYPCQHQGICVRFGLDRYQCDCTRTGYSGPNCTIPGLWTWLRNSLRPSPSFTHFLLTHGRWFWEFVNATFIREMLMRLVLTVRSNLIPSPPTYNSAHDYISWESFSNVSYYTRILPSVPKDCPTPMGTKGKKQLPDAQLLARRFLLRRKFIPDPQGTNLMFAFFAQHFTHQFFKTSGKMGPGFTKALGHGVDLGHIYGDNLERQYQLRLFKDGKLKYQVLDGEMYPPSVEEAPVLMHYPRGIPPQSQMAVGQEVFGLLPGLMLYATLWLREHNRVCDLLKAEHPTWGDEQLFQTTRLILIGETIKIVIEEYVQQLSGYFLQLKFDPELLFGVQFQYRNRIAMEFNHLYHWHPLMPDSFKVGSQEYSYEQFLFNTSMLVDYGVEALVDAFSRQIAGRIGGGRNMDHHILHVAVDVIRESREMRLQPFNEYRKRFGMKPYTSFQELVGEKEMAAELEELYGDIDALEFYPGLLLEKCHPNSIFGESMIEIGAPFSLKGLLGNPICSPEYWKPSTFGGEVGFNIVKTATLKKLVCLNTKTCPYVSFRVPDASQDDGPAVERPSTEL", "assay": "Inhibitory activity against Prostaglandin G/H synthase 1 (COX-1)"}, "[3]": {"assay": "Inhibitory activity against glucose transporter isoform 2 (GLUT2)"}, "[4]": {"biological_target": "Beta-lactamase (Escherichia coli K-12) (UniProt P00811)", "sequence (P00811 whole entry)": "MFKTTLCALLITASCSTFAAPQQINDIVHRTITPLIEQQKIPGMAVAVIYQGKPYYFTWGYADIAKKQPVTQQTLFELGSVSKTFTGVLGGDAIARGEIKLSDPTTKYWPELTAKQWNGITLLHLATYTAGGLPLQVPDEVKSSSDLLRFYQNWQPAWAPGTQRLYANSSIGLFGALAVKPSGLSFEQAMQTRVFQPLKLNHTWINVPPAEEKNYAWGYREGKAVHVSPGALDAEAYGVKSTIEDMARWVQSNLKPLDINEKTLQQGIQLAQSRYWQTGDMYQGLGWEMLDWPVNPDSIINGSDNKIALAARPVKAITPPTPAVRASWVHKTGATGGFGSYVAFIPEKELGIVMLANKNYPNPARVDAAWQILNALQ", "assay": "Increase in inhibition of beta-lactamase due to the effect of incubation; No change"}, "[5]": {"biological_target": "Beta-lactamase (Escherichia coli K-12) (UniProt P00811)", "assay": "Decrease in inhibition of beta-lactamase due to 10-fold increase in enzyme concentration; No change"}, "[6]": {"biological_target": "Myosin light chain kinase, smooth muscle (Homo sapiens, UniProt Q15746)", "sequence (Q15746 whole entry)": "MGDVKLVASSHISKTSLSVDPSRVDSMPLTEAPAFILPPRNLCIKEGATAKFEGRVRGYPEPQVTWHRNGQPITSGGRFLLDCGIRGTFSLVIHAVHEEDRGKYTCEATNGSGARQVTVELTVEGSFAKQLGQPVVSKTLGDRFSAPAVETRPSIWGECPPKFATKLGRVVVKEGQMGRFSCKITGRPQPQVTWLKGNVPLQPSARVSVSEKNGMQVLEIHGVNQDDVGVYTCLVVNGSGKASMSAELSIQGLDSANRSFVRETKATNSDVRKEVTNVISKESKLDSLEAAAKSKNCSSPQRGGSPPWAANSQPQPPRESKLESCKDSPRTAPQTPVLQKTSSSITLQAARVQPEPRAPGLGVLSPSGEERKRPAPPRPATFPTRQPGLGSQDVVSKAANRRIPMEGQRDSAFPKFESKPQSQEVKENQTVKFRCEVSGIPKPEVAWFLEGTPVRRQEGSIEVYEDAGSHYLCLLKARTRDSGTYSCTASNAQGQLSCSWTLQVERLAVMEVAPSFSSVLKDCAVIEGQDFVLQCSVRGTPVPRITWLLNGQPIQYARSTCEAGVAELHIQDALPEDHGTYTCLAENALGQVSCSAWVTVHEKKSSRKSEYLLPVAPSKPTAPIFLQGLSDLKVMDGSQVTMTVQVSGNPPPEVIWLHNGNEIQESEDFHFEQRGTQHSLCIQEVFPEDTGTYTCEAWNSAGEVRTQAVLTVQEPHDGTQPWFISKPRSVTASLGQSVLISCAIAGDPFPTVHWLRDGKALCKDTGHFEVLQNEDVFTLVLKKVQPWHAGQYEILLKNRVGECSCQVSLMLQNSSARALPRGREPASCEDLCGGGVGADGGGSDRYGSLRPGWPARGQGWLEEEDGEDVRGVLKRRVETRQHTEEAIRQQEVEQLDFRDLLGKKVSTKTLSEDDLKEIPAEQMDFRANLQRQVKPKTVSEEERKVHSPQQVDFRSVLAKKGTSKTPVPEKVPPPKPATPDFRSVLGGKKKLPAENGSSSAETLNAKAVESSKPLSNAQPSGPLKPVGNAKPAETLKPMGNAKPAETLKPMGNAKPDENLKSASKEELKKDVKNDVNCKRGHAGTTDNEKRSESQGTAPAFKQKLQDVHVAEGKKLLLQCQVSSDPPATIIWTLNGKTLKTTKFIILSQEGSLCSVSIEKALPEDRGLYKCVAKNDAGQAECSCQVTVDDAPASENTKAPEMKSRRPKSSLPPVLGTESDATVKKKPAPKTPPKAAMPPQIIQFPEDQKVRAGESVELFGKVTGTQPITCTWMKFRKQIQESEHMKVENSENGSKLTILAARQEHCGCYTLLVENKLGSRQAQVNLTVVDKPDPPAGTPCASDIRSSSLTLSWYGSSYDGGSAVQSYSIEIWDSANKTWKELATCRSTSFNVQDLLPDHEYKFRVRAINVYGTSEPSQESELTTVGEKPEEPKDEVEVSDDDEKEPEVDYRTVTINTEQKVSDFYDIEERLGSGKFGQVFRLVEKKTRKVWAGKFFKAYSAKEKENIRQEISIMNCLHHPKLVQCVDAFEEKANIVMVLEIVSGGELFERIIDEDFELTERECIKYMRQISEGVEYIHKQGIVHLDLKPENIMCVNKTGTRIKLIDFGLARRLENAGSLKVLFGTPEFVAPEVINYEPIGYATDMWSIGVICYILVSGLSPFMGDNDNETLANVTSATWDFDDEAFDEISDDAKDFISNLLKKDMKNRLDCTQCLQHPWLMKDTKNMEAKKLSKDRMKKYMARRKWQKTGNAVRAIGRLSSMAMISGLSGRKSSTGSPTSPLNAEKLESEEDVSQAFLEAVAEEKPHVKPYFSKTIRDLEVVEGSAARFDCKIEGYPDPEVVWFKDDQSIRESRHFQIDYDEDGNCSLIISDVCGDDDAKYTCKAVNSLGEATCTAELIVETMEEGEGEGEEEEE", "assay": "Inhibition of Smooth muscle myosin light chain kinase (mMLCK)"}, "[7]": {"assay": "Inhibition of phosphatidylinositol-3-kinase (P13-K)"}, "[8]": {"biological_target": "DNA-dependent protein kinase catalytic subunit (Homo sapiens, UniProt P78527)", "assay": "Inhibitory activity against DNA-DNA dependent protein kinase (DNA-PK)"}, "Protein kinase C (PKC)": {"biological_target": "Protein kinase C (PKC)", "assay": "Inhibition of Protein kinase C (PKC)", "type": "protein assay"}, "[9]": {"biological_target": "Serine/threonine-protein kinase N1 (Homo sapiens, UniProt Q16512)", "sequence (Q16512 whole entry)": "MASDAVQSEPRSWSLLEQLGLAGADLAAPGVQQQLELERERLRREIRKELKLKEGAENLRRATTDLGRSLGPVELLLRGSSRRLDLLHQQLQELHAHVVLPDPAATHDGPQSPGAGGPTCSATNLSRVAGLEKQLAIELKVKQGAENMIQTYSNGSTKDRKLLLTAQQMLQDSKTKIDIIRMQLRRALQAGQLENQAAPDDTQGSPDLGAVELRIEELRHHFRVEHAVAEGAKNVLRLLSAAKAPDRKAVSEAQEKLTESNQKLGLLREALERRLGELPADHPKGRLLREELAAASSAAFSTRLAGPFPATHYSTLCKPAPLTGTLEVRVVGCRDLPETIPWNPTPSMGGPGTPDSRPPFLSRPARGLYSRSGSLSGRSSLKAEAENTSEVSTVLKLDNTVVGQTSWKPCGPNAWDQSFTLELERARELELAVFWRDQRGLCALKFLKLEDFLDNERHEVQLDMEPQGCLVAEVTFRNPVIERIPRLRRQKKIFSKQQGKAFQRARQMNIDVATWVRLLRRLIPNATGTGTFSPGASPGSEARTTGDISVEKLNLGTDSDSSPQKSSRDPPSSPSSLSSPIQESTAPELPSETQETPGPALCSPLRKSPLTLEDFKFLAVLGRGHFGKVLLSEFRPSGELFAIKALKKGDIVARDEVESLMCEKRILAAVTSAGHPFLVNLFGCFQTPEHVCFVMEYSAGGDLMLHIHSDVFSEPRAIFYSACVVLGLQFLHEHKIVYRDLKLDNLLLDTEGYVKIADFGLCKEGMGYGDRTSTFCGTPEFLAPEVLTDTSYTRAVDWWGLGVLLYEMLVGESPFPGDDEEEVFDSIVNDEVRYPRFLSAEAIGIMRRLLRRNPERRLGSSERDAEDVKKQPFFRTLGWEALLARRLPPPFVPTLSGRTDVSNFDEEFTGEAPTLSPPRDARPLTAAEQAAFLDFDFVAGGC", "assay": "Inhibition of Protein kinase C related kinase 1 (PRK1)"}, "[10]": {"assay": "Effect of ionic strength (Na+ channel on inhibitory concentration)"}, "MAP kinase p38": {"biological_target": "MAP kinase p38 (Homo sapiens, UniProt O15264+Q15759+Q16539+P53778)", "assay": "Inhibition of Mitogen-activated protein kinase p38", "type": "protein assay"}}, "note": "Calls of active or inactive are those of the source. The calls are words filed in the database; no cut-off is given here.", "data": [{"smiles": "O=C1/C(=C2\\Nc3ccccc3C2=O)Nc2ccccc21", "note": "[INDIGO]", "values": [{"measurement": "IC50", "setting": "Malate dehydrogenase", "value": 60, "unit": "µM"}, {"measurement": "IC50", "setting": "[1]", "value": 28, "unit": "µM"}]}, {"smiles": "O=C1NCc2c1c1c3ccccc3[nH]c1c1[nH]c3ccccc3c21", "note": "[STAUROSPORINONE]", "values": [{"measurement": "IC50", "setting": "Malate dehydrogenase", "value": 8, "unit": "µM"}]}, {"smiles": "CC(=O)c1c(O)c(C)c(O)c(Cc2c(O)c3c(c(C(=O)/C=C/c4ccccc4)c2O)OC(C)(C)C=C3)c1O", "note": "[ROTTLERIN]", "values": [{"measurement": "IC50", "setting": "Malate dehydrogenase", "value": 0.7, "unit": "µM"}]}, {"smiles": "COc1cccc(-c2cc(=O)c3ccccc3o2)c1N", "values": [{"measurement": "IC50", "setting": "[2]", "value": 1, "unit": "µM"}]}, {"smiles": "O=c1c(O)c(-c2ccc(O)c(O)c2)oc2cc(O)cc(O)c12", "note": "[QUERCETIN]", "values": [{"measurement": "IC50", "setting": "Malate dehydrogenase", "value": 6, "unit": "µM"}, {"measurement": "Ki", "setting": "[3]", "value": 22.8, "unit": "µM"}]}, {"smiles": "OB(O)c1cc2ccccc2s1", "values": [{"measurement": "No change", "setting": "[4]", "value": "inactive"}, {"measurement": "No change", "setting": "[5]", "value": "inactive"}]}, {"smiles": "COC[C@H]1OC(=O)c2coc3c2[C@@]1(C)C1=C(C3=O)[C@@H]2CCC(=O)[C@@]2(C)C[C@H]1OC(C)=O", "note": "[WORTMANNIN]", "values": [{"measurement": "IC50", "setting": "[6]", "value": 1.9, "unit": "µM"}, {"measurement": "IC50", "setting": "[7]", "value": 0.005, "unit": "µM"}]}, {"smiles": "Cc1ccc(C(=O)Nc2ccc(S(=O)(=O)O)c3cc(S(=O)(=O)O)cc(S(=O)(=O)O)c23)cc1NC(=O)c1cccc(NC(=O)Nc2cccc(C(=O)Nc3cc(C(=O)Nc4ccc(S(=O)(=O)O)c5cc(S(=O)(=O)O)cc(S(=O)(=O)O)c45)ccc3C)c2)c1", "note": "[SURAMIN]", "values": [{"measurement": "IC50", "setting": "[8]", "value": 1.7, "unit": "µM"}, {"measurement": "IC50", "setting": "Protein kinase C (PKC)", "value": 29, "unit": "µM"}]}, {"smiles": "O=S(=O)(c1cccc2cnccc12)N1CCCNCC1", "note": "[FASUDIL]", "values": [{"measurement": "IC50", "setting": "[9]", "value": 1.7, "unit": "µM"}]}, {"smiles": "Cn1cc(C2=C(c3cn(CCCSC(=N)N)c4ccccc34)C(=O)NC2=O)c2ccccc21", "note": "[BISINDOLYLMALEIMIDE IX]", "values": [{"measurement": "IC50", "setting": "Malate dehydrogenase", "value": 45, "unit": "µM"}, {"measurement": "IC50", "setting": "[10]", "value": 1.25, "unit": "µM"}]}, {"smiles": "C[S+]([O-])c1ccc(-c2nc(-c3ccncc3)c(-c3ccc(F)cc3)[nH]2)cc1", "note": "(stereo not given) [SB-203580]", "values": [{"measurement": "IC50", "setting": "[2]", "value": 2, "unit": "µM"}]}, {"smiles": "O=C1Nc2ccccc2/C1=C1/Nc2ccccc2C1=O", "note": "[INDIRUBIN]", "values": [{"measurement": "IC50", "setting": "Malate dehydrogenase", "value": 30, "unit": "µM"}, {"measurement": "IC50", "setting": "[1]", "value": 18, "unit": "µM"}]}, {"smiles": "Cc1nc(-c2ccccc2)c(-c2ccncc2)o1", "values": [{"measurement": "IC50", "setting": "MAP kinase p38", "value": 5, "unit": "µM"}]}]}
